# Source: US20150141375A1 (priority 2009, published 2015)
# Read-outs that look alike come from different tables or passages of the source.
# How the values were obtained:
# [1] = Single-dose, dose-escalation study in healthy adult volunteers; format: in vivo, human
# Procedure: A randomized double-blind, placebo-controlled, single-dose, dose-escalation study of CMX001 in healthy adult volunteers was conducted.
# Nine single dose cohorts-CMX001:placebo (2:1)
# Six subjects per cohort; 36 received CMX001; 18 received placebo
# Highest dose was 2 mg/kg (140 mg in a 70 kg person)
# Six multiple dose cohorts-CMX001:placebo (2:1) (3 doses over 3 weeks)
# Five subjects per cohort; 20 received CMX001; 10 received placebo
# HSV-2, strain MS = test: Mortality of BALB/c mice infected intranasally with HSV-2, strain MS; format: in vivo
# Procedure: Animals: BALB/c, female mice, 3-4 weeks of age.
# Treatments were administered to mice for 7 consecutive days beginning 72 hr post viral inoculation by oral gavage using a 0.2 ml volume. CMX001 was administered once daily and ACV was given twice daily at approximately 12 hr intervals.
# Mortality rates analyzed by Fisher's exact test; Mean day of death (MDD) by Mann-Whitney U rank sum.
# [2] = Clearance and organ distribution in mouse; format: in vivo; details: oral 5 mg/kg [C2-14C]CMX001, four hours
# AdV 5 = test system: AdV 5; design: species or system Syrian Hamster; details: hamster, in vivo
# vaccinia virus = format: in vivo, human; details: detectable while on ST-246 and VIG
# HCMV (AD169) = test: HCMV real time array of viral transcripts; format: cell-based; details: CDV 50 μM, GCV 15 μM, CMX001 0.5 μM; ANOVA P<0.05
# HSV-1 = test: microbe, parasite or virus in culture; format: cell-based
# [3] = SVG cell viability / cell number (MTS, alamar blue, hematoxylin); format: cell-based, human; details: human; for cytotoxicity at 1 μM: read-out: reduction in viability (MTS)
# Procedure: (§1) Quantification of cell viability using the MTS [3-(4,5-dimethylthiazol-2-yl)-5-(3-carboxymethoxyphenyl)-2-(4-sulfophenyl)-2H-tetrazolium] assay is based on bioactivity of mitochondrial dehydrogenase in living cells, which converts colorless tetrazolium salt to a colored formazan. MTS assays were performed according to manufacturer's instructions (Promega, Madison Wis.). Briefly, culture medium was removed from cells and 50 μL of PBS was added into each well of a 96 well plate. Ten μL of MTS reagent were added to wells of cells, and to a well without cells to determine background. Mixtures were incubated at 37° C. for 2 hours and the absorbance was measured at 490 nm. Trypan blue staining was performed on identical cultures to correlate MTS values with cell viability. The final values indicated are the result from 3 replicates. The value for the non-treated control was set to 100% and all other values are represented as a percentage of the control. Alamar blue (AB) assay.
# (§2) Quantification of cell viability using the alamar blue (AB) assay was performed according to the manufacturer's instructions (Invitrogen, Gaithersburg, Md.). Briefly, 10 μL of AB reagent was added to each well of a 96 well dish containing cells or without cells to determine background. Mixtures were incubated at 37° C. for 6 hours and the absorbance measured at 570 nm using 600 nm as a reference wavelength. The value for the non-treated control was set to 100% and all other values are represented as a percentage of the control.
# (§3) Because cell density in cultures processed for in situ DNA hybridization could not be measured by MTS or AB assays, cell density was approximated in cell cultures processed by quantifying hematoxylin staining intensity. Coverslips containing cells were prepared for in situ DNA hybridization and co-stained with hematoxylin. Subsequently, each coverslip was scanned and the hematoxylin intensities quantified using ImageJ. To determine the total cell number per coverslip, images were acquired at 10 random positions at 100× magnification. Cells were counted throughout each image and the average cell number per slide was generated by averaging counts from the 10 images for each experimental group. Exactly 900 images at 100× magnification cover the surface of an 18 mm×18 mm coverslip.
# SVG cells = test: as above; format: cell-based, human
# Procedure: as §1, §2, §3
# Mad-4 JCV = test: JCV (Mad-4) initial infection of SVG cells (in situ DNA hybridization, qPCR)
# [4] = human, oral, CMX001 2 mg/kg single dose, plasma, Mean
compound,measurement,setting,value
"CCCCCCCCCCCCCCCCOCCCOP(=O)(O)CO[C@H](CO)Cn1ccc(N)nc1=O [CMX001, Hexadecyloxypropyl-cidofovir]",AUC(0-t),[1]; [4],2610 ng·h/mL
same,Cmax,[1]; [4],350 ng/mL
same,Tmax,[1]; [4],3 h
same,half-life,[1]; [4],24 h
same,AUC(0-inf),"[1]; human, oral, CMX001 2 mg/kg single dose, plasma, Mean, read-out: AUCinf_obs",2650 ng·h/mL
same,tolerability,[1]; single and multiple doses,well tolerated
same,MDD,"HSV-2, strain MS; CMX001 0.125 mg/kg",9.0 ± 1.0
same,Mortality Number,"HSV-2, strain MS; CMX001 0.125 mg/kg",13/15
same,Mortality Percent,"HSV-2, strain MS; CMX001 0.125 mg/kg",87%
same,MDD,"HSV-2, strain MS; CMX001 0.42 mg/kg",9.8 ± 2.6
same,Mortality Number,"HSV-2, strain MS; CMX001 0.42 mg/kg",12/15
same,Mortality Percent,"HSV-2, strain MS; CMX001 0.42 mg/kg",80%
same,MDD,"HSV-2, strain MS; CMX001 1.25 mg/kg",9.4 ± 2.9
same,Mortality Number,"HSV-2, strain MS; CMX001 1.25 mg/kg",9/15
same,Mortality Percent,"HSV-2, strain MS; CMX001 1.25 mg/kg",60%
same,availability and distribution,[2],orally available and widely distributed
same,reduction of infectious AdV5 titers in liver,AdV 5,6 logs
same,viable vaccinia in lesions,vaccinia virus,Eliminated
same,levels of viral transcripts,HCMV (AD169),Significant reductions in levels of most viral transcripts
same,EC50,"HSV-1; Human alphaherpesvirus 1, ACV resistant strain B-2006",10 ± 0.7 nM
same,EC50,"HSV-1; Human alphaherpesvirus 1, ACV resistant strain DM2.1",8 nM
same,EC50,"HSV-1; Human alphaherpesvirus 1, ACV resistant strain PAAr5",10 nM
same,EC50,"HSV-1; Human alphaherpesvirus 1, F (wild type), Table 9",15 ± 6 nM
same,EC50,"HSV-1; Human alphaherpesvirus 1, SC16, ACV resistant strain SC16-S1",10 nM
same,EC50,"HSV-1; Human alphaherpesvirus 1, read-out: EC50 range, panel of wild-type and ACV-resistant isolates of HSV-1 and HSV-2",8 to 30 nM
same,EC50,"HSV-1; Human alphaherpesvirus 1, strain E-377",60 ± 30 nM
same,EC50,"HSV-1; Human alphaherpesvirus 1, strain F",10 ± 5 nM
same,EC50,"HSV-1; Human alphaherpesvirus 1, strain HL-3",10 ± 10 nM
same,cytotoxicity at 1 μM,"[3]; JCV-infected SVG cells (established infection), 1 μM, JCV-infected cells, established infection",40%
same,"cytotoxicity at 4 days, 0.01 μM","[3]; SVG cells, 0.01 μM, 4 days, read-out: reduction in cell viability (alamar blue)",6%
same,"cytotoxicity at 4 days, 0.1 μM","[3]; SVG cells, 0.1 μM, 4 days, read-out: reduction in cell viability (alamar blue)",11%
same,"cytotoxicity at 4 days, 1 μM","[3]; SVG cells, 1 μM, 4 days, read-out: reduction in cell viability (alamar blue)",32%
same,cytotoxicity at 1 μM,"[3]; non-infected SVG cells, 1 μM, non-infected cells",15%
same,reduction in total cell number (hematoxylin),SVG cells; 0.01 μM,did not result in significant reduction
same,reduction in total cell number (hematoxylin),SVG cells; 0.03 μM,14%
same,reduction in total cell number (hematoxylin),SVG cells; 0.07 μM,39%
same,reduction in total cell number (hematoxylin),SVG cells; 0.1 μM,46%
same,cell viability (MTS),"SVG cells; 0.01 or 0.1 μM, non-infected or JCV-infected (established infection) SVG cells",did not alter cell viability
same,concentrations at which cytotoxicity was observed,SVG cells; SVG cells,≥ 1000 nM
same,reduction in percentage of JCV DNA containing cells,"Mad-4 JCV; 0.03 μM, 4 days",46%
same,decrease in number of JCV genome copies (qPCR),"Mad-4 JCV; 0.07 μM, 4 days",57%
same,reduction in percentage of JCV DNA containing cells,"Mad-4 JCV; 0.07 μM, 4 days",57%
same,"maximal suppression of JCV DNA containing cells, normalized to total cell number",Mad-4 JCV; 0.1 μM,52%
same,reduction in percentage of JCV DNA containing cells,"Mad-4 JCV; 0.1 μM, 4 days",71%
same,EC50,"Mad-4 JCV; JC polyomavirus, read-out: EC50, JCV copy number",45 nM
